Measured values published in patent publication US20060079453A1, “Hla binding peptides and their uses” (priority 2002, published 2006).
Like-named read-outs stand apart in the source and are kept apart here. No end group written: not given here.

Tests used:
Test in all cases: biochemical
Format in all cases: binding
[1] = biological target: HLA-DR DRB1*0405 (DR4) (Homo sapiens, UniProt P01903+P01911, A100R/A169T/D86S/F76Y/I96L/K127E/L162R/M171V/N62H/P40V/Q125Y/R42H/S133A/S149N/S66Y/V115G/V209L/W38E)
[2] = biological target: HLA-DR DRB1*0701 (DR7) (Homo sapiens, UniProt P01903+P01911, A100R/A102G/A103Q/D57E/D86V/E43K/F76Y/K127E/L162R/M171V/P40G/Q125H/Q99D/R33Q/R42Y/R54Q/S133A/S66F/T210M/V115G/Y107V/Y59L/Y89S)
[3] = biological target: HLA-DR DRB1*0401 (DR4) (Homo sapiens, UniProt P01903+P01911, A100K/A169T/F76Y/I96L/K127E/L162R/M171V/N62H/P40V/Q125Y/R42H/S133A/S149N/S66Y/V115G/V209L/W38E)
[4] = biological target: HLA-DR DRB1*0802 (DR8) (Homo sapiens, UniProt P01903+P01911, A100R/A103L/A169T/F76Y/H45Y/I96F/K41T/L162R/M171V/P40S/Q125H/Q178H/Q39Y/Q99D/R218S/R42G/S66Y/V115G/W38E)
[5] = biological target: HLA-DR DRB1*0301 (DR3) (Homo sapiens, UniProt P01903+P01911, A100K/A102G/A103R/A169T/F55Y/I96L/K41T/L162R/M171V/P40S/Q125H/Q178H/Q39Y/R42S/S66N/T106N/T262R/W38E/Y61H)
[6] = biological target: HLA-DR DRB1*1101 (DR11) (Homo sapiens, UniProt P01903+P01911, A100R/A169T/A87E/I96F/K41T/L162R/M171V/P40S/Q125H/Q178H/Q39Y/Q99D/R42S/S66Y/T262R/V115G/W38E); settings: DRB1 *1101
[7] = biological target: HLA-DR DRB4*0101 (DR53) (Homo sapiens, UniProt P01903+P13762, G164S); settings: DRB4 *0101
[8] = biological target: HLA-DR DRB1*1302 (DR13) (Homo sapiens, UniProt P01903+P01911, A100E/A169T/K41T/L162R/M171V/P40S/Q125H/Q178H/Q39Y/Q99D/R42S/S66N/T262R/V115G/W38E/Y61H); settings: DRBI *1302
[9] = biological target: HLA-DR DRB1*0901 (DR9) (Homo sapiens, UniProt P01903+P01911, A100R/A103E/D57H/D86V/F55Y/F60I/F76Y/I96F/K127E/L162R/M171V/P40D/Q125H/Q99R/R33Q/R42F/S133A/S66N/T210M/V115G/W38K/Y107V/Y59G/Y89S)
[10] = biological target: HLA-DR DRB1*1501 (DR15) (Homo sapiens, UniProt P01903+P01911); settings: DRBI *1501
[11] = biological target: HLA-DR DRB5*0101 (DR51) (Homo sapiens, UniProt P01903+Q30154); settings: DRB5 *0101
[12] = biological target: HLA-DR DRB1*0101 (DR1) (Homo sapiens, UniProt P01903+P01911, A100R/D57E/F55L/F60I/F76Y/I96L/L162R/M171V/P40L/Q125E/R42F/V115G/Y59C)

Chain of HLA-DR DRB1*0301 (DR3) (P01903 26-254 limits assumed, other chains not shown): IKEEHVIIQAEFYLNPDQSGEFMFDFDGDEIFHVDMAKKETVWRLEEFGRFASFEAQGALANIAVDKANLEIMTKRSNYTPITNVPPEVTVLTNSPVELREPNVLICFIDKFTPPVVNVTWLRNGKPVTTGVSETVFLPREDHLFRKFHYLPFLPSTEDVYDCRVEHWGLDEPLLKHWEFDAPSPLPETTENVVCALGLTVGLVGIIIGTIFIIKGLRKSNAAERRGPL
Chain of HLA-DR DRB1*1302 (DR13) (P01903 26-254 limits assumed, other chains not shown): as above
Chain of HLA-DR DRB1*1101 (DR11) (P01903 26-254 limits assumed, other chains not shown): as above

Row | Compound | IC50 ([1]; read-out: DRB1 *0405) [µM] | IC50 ([2]; read-out: DRB1 *0701) [µM] | IC50 ([3]; read-out: DRB1 *0401) [µM] | IC50 ([4]; read-out: DRB1 *0802) [µM] | IC50 ([5]; read-out: DRB1 *0301) [µM] | IC50 ([1]; DRB1 *0405) [µM] | IC50 ([2]; DRB1 *0701) [µM] | IC50 ([3]; DRB1 *0401) [µM] | IC50 [4] [µM] | IC50 [6] [µM] | IC50 [7] [µM] | IC50 [5] [µM] | IC50 [8] [µM] | IC50 ([9]; DRB1 *0901) [µM] | IC50 [10] [µM] | IC50 [11] [µM] | IC50 ([12]; DRB1 *0101) [µM] | IC50 ([12]; read-out: DRB1 *0101) [µM] | IC50 ([9]; read-out: DRB1 *0901) [µM]
1 | FAGIRRDGLLLRLVD | > 3.37 | 41.1 | 7.09 | 7.65 | 0.0036 | – | – | – | – | – | – | – | – | – | – | – | – | – | –
2 | RTSIRASLTFNRGFK | – | – | – | – | – | 5.13 | 0.411 | 0.77 | 5.48 | 4.81 | 0.079 | 0.256 | – | – | – | – | – | – | –
3 | ESTGMTPEKVPVSEVMGT | > 71.4 | – | > 47.4 | > 31.2 | > 50 | – | – | – | – | – | – | – | – | – | – | – | – | – | –
4 | LKLVYRDDFPYAVCR | – | – | – | – | – | 0.83 | 29 | 0.123 | – | 0.698 | 3.83 | 0.237 | 0.699 | 18.7 | 1.88 | 9.16 | 0.778 | – | –
5 | ALIYNYGLLYCFRKD | 0.551 | – | – | > 33.3 | 9.82 | – | – | – | – | – | – | – | – | – | – | – | – | 0.137 | –
6 | YGRILHYLKAKEDSH | – | – | – | – | – | 0.023 | 0.9 | 2.34 | 0.704 | – | – | 42.4 | – | – | – | – | 0.03 | – | –
7 | LRTLQQMLLGTLQVV | – | – | – | – | – | 0.079 | 6.91 | 0.437 | – | 0.907 | 0.088 | > 3750 | 0.616 | 5.08 | 1.7 | > 46.6 | 0.08 | – | –
8 | CYSLYGTTLEQQYNK | – | – | – | – | – | 0.071 | > 9.96 | – | 26 | > 14.7 | 0.189 | – | > 13.7 | – | 5.06 | > 10.7 | 1.09 | – | –
9 | GIVEQTTTSITSLYQ | – | – | – | – | – | 0.818 | 0.788 | 0.121 | > 54.4 | – | – | 107 | – | – | – | – | 6.35 | – | –
10 | CSCC[C@H](NC(=O)[C@H](CCC(N)=O)NC(=O)[C@@H](NC(=O)[C@H](Cc1ccccc1)NC(=O)[C@H](C)NC(=O)[C@@H](NC(=O)CN)[C@@H](C)O)C(C)C)C(=O)N1CCC[C@H]1C(=O)N[C@@H](C)C(=O)N[C@@H](Cc1c[nH]cn1)C(=O)NCC(=O)N[C@@H](CC(C)C)C(=O)N[C@@H](Cc1ccccc1)C(=O)N1CCC[C@H]1C(=O)N[C@@H](Cc1c[nH]c2ccccc12)C(=O)O | – | – | – | – | – | 0.018 | 0.09 | 0.0081 | 0.099 | 0.017 | – | 37.3 | 2.82 | – | 0.0012 | 0.043 | 0.0016 | – | –
11 | VRVEILRYFYVINRL | 0.018 | 0.014 | 0.14 | 3.58 | – | – | – | – | – | – | – | – | – | – | – | – | – | 0.0018 | 0.485
12 | MKHILYISFYFILVN | – | – | – | – | – | 3.38 | – | 0.189 | 15.6 | – | – | – | – | – | – | > 9.52 | 5.89 | – | –
13 | WAGLLLDTRTLEVQS | – | – | – | – | – | 1.24 | – | 0.049 | > 61.2 | 21 | – | 0.022 | 0.092 | – | 3.47 | > 102 | 2.02 | – | –
14 | CC(C)C[C@H](NC(=O)[C@H](C)NC(=O)[C@H](Cc1ccccc1)NC(=O)[C@@H](N)[C@@H](C)O)C(=O)N[C@@H](Cc1c[nH]c2ccccc12)C(=O)N[C@@H](CCCNC(=N)N)C(=O)N[C@H](C(=O)N[C@@H](CO)C(=O)N[C@@H](C)C(=O)N[C@@H](CCC(=O)O)C(=O)N[C@@H](CCC(=O)O)C(=O)N[C@@H](Cc1ccc(O)cc1)C(=O)O)C(C)C | – | – | – | – | – | 0.072 | 0.927 | 0.342 | – | 0.342 | > 6.61 | 88.3 | > 2.57 | 0.517 | > 12.7 | 25.5 | > 5.28 | – | –
15 | CC[C@H](C)[C@H](NC(=O)[C@@H](NC(=O)[C@H](CC(C)C)NC(=O)[C@H](CC(=O)O)NC(=O)[C@@H](NC(=O)[C@H](Cc1ccccc1)NC(=O)[C@H](C)NC(=O)[C@H](Cc1ccccc1)NC(=O)[C@H](CC(=O)O)NC(=O)[C@H](CC(C)C)NC(=O)[C@@H](N)C(C)C)[C@@H](C)O)[C@@H](C)O)C(=O)N[C@H](C(=O)N[C@@H](Cc1ccc(O)cc1)C(=O)N[C@@H](CCCNC(=N)N)C(=O)N[C@@H](CC(=O)O)C(=O)O)C(C)C | – | – | – | – | – | 0.721 | 0.23 | – | – | 7.47 | 11.3 | 0.03 | 3.1 | 0.252 | 0.645 | 14.8 | 0.354 | – | –
16 | PVIKNSIKLRL | – | – | – | – | – | 278 | 4.09 | 34.2 | – | 2.77 | 0.198 | 0.198 | 0.077 | 2.85 | 2.58 | 1.04 | 1.55 | – | –
17 | CC[C@H](C)[C@H](NC(=O)CNC(=O)[C@H](CC(C)C)NC(=O)CNC(=O)[C@H](CCCCN)NC(=O)[C@@H](NC(=O)[C@@H](NC(=O)[C@H](Cc1ccccc1)NC(=O)[C@H](CS)NC(=O)[C@@H](NC(=O)[C@@H](N)CCC(N)=O)C(C)C)[C@@H](C)CC)[C@@H](C)O)C(=O)N[C@@H](CO)C(=O)N[C@@H](Cc1ccc(O)cc1)C(=O)NCC(=O)N[C@@H](CCCNC(=N)N)C(=O)O | – | – | – | – | – | 0.295 | 0.091 | – | 0.041 | 0.031 | 0.876 | 167 | 0.092 | – | 3.55 | 3.95 | – | – | –
